Results as given in US20250195528A1, “DOSE REGIMEN OF VICASINABIN” (Hoffmann-La Roche Inc., priority 2022, published 2025).
“Also recorded” adds a separate entry of the source. Like-named read-outs stand apart in the source and are kept apart here.

What was measured:
[1] = test system: 131 targets along with 57 CNS- and abuse potential-specific targets; experiment: In vitro pharmacology profile on target panels; settings: 30 μM
Method: The in vitro pharmacology profile of RO6868847 was evaluated at concentration of 30 μM on panels including 131 targets along with 57 CNS- and abuse potential-specific targets.

[2] = Study BP40387 Part 1 (SAD) pharmacokinetics, healthy participants; format: in vivo, human; settings: for Tmax / half-life / AUC / Cmax: both sexes, human, plasma
Method: In Part 1 (SAD) of Study BP40387, in the fasted state, RO6868847 was overall rapidly absorbed; however, the Tmax appeared to shift with increasing dose. Individual Tmax ranged between 1 to 6 hours at 100 mg and 300 mg RO6868847.

[3] = Study BP40387 Part 2 (FE) food effect on pharmacokinetics; format: in vivo, human; settings: for Tmax: both sexes, human, plasma, oral, 100 mg single dose, read-out: Median Tmax
Source text: In Part 2 (FE) of Study BP40387, consistent with delayed gastric emptying due to an extended meal, the time to reach peak plasma concentration (Tmax) was slightly longer following dosing after a high fat, high calorie breakfast. […] Single Dose Urine Pharmacokinetics

[4] = Solubility of drug substance; format: physicochemical
Method: For Phase I, film-coated tablets for oral administration containing 0.05, 0.75, 10, or 100 mg of RO6868847 drug substance were developed for clinical use. Three placebo film-coated tablets were formulated to match the active film-coated tablets in size and in appearance: one size to match the active 0.05 and 0.75 mg film-coated tablets and one size each to match the active 10 and 100 mg film-coated tablets.

[5] = single oral 0.75 mg, fasted, geo mean
[6] = single oral 3.0 mg, fasted, geo mean
[7] = single oral 10 mg, fasted, geo mean
[8] = single oral 30 mg, fasted, geo mean
[9] = single oral 100 mg, fasted, geo mean
[10] = single oral 300 mg, fasted, geo mean

Cn1nnnc1Cn1nnc2c(N3CC[C@H](O)C3)nc(C(C)(C)C)nc21 [RO6868847, (3S)-1-[5-tert-butyl-3-[(1-methyltetrazol-5-yl)methyl]triazolo[4,5-d]pyrimidin-7-yl]pyrrolidin-3-ol]
selectivity for CB2 in panels [1]: high selectivity for CB2 in all the panels | Tmax ([2]; oral, Study BP40387, fasted conditions, across doses, read-out: median Tmax): 1 to 4 h | Tmax ([2]; oral, single dose 100 mg and 300 mg, fasted, read-out: Individual Tmax): 1 to 6 h | half-life ([2]; oral, single dose, range across doses, read-out: apparent terminal elimination half-life): 6.95 to 18.5 h | Tmax ([2]; po, 0.75 mg, single oral 0.75 mg, fasted, median, read-out: Tmax): 1 h | Tmax ([2]; po, 3 mg, single oral 3.0 mg, fasted, median, read-out: Tmax): 1 h | Tmax ([2]; po, 10 mg, single oral 10 mg, fasted, median, read-out: Tmax): 1.75 h | Tmax ([2]; po, 30 mg, single oral 30 mg, fasted, median, read-out: Tmax): 1.5 h | Tmax ([2]; po, 100 mg, single oral 100 mg, fasted, median, read-out: Tmax): 1.75 h | Tmax ([2]; po, 300 mg, single oral 300 mg, fasted, median, read-out: Tmax): 3 h | AUC [2, 5]: 112 ng·h/mL | Cmax [2, 5]: 9.92 ng/mL | half-life ([2]; single oral 0.75 mg, fasted, geo mean, read-out: t1/2 (converted)): 6.89 h | AUC [2, 6]: 435 ng·h/mL | Cmax [2, 6]: 40 ng/mL | half-life ([2]; single oral 3.0 mg, fasted, geo mean, read-out: t1/2 (converted)): 7.99 h | AUC [2, 7]: 972 ng·h/mL | Cmax [2, 7]: 111 ng/mL | half-life ([2]; single oral 10 mg, fasted, geo mean, read-out: t1/2 (converted)): 6.95 h | AUC [2, 8]: 3530 ng·h/mL | Cmax [2, 8]: 355 ng/mL | half-life ([2]; single oral 30 mg, fasted, geo mean, read-out: t1/2 (converted)): 6.97 h | AUC [2, 9]: 12500 ng·h/mL | Cmax [2, 9]: 1120 ng/mL | half-life ([2]; single oral 100 mg, fasted, geo mean, read-out: t1/2 (converted)): 14.6 h | AUC [2, 10]: 31400 ng·h/mL | Cmax [2, 10]: 2500 ng/mL | half-life ([2]; single oral 300 mg, fasted, geo mean, read-out: t1/2 (converted)): 18.5 h | dose-proportionality of Cmax and AUC ([2]; doses beyond 100 mg): slightly less than dose-proportional | dose-proportionality of Cmax and AUC ([2]; up to 100 mg): no pronounced deviations from dose-proportionality; also recorded: approximately dose-proportionally | effect of food on AUCInf ([3]; 100 mg, fed vs fasted): increased only marginally | effect of food on Cmax ([3]; 100 mg, fed vs fasted): remained unaffected by food | Tmax ([3]; 100 mg, fasted state): 3 h | Tmax ([3]; 100 mg, fed state (high fat, high calorie breakfast)): 4 h | effect of food on the pharmacokinetics ([3]; overall): no relevant effect | solubility in aqueous solutions [4]: slightly soluble | solubility in organic solvents [4]: moderate to good solubility
